Test results as given in PubChem BioAssay AID1918939 (Molecular Pharmacology Branch, DTP, NCI, 2023).

System: 653999-131-R-J2-PDC complex spheroid viability
Test: Anticancer human tumor 653999-131-R-J2-PDC patient-derived lung adenocarcinoma cell line growth inhibition
Details: for IC50: curve of first compound; for viability, T/C: stronger effect = lower value
Procedure, shortened: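 Drug combinations with the LSD1 inhibitor iadademstat tested on tumor cells co-cultured as spheroids with endothelial cells and mesenchymal stem cells. Concentrations descended in half-log increments from clinical Cmax or 10 microM.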

[1] = second compound 0.1 µM, first compound 0.00949 µM
[2] = second compound 0.1 µM, first compound 0.03 µM
[3] = second compound 0.1 µM, first compound 0.0949 µM
[4] = second compound 0.1 µM, first compound 0.3 µM
[5] = second compound 0.1 µM, first compound 0.949 µM
[6] = second compound 0.1 µM, first compound 3 µM
[7] = second compound 0.316 µM, first compound 0.00949 µM
[8] = second compound 0.316 µM, first compound 0.03 µM
[9] = second compound 0.316 µM, first compound 0.0949 µM
[10] = second compound 0.316 µM, first compound 0.3 µM
[11] = second compound 0.316 µM, first compound 0.949 µM
[12] = second compound 0.316 µM, first compound 3 µM
[13] = second compound 1 µM, first compound 0.00949 µM
[14] = second compound 1 µM, first compound 0.03 µM
[15] = second compound 1 µM, first compound 0.0949 µM
[16] = second compound 1 µM, first compound 0.3 µM
[17] = second compound 1 µM, first compound 0.949 µM
[18] = second compound 1 µM, first compound 3 µM
[19] = second compound 3.16 µM, first compound 0.00949 µM
[20] = second compound 3.16 µM, first compound 0.03 µM
[21] = second compound 3.16 µM, first compound 0.0949 µM
[22] = second compound 3.16 µM, first compound 0.3 µM
[23] = second compound 3.16 µM, first compound 0.949 µM
[24] = second compound 3.16 µM, first compound 3 µM
[25] = second compound 10 µM, first compound 0.00949 µM
[26] = second compound 10 µM, first compound 0.03 µM
[27] = second compound 10 µM, first compound 0.0949 µM
[28] = second compound 10 µM, first compound 0.3 µM
[29] = second compound 10 µM, first compound 0.949 µM
[30] = second compound 10 µM, first compound 3 µM
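Further: spheroids exposed to agents for seven days before readout.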

| Structure (SMILES) | IC50 (second compound 0.1 µM) [nM] | IC50 (second compound 0.316 µM) [nM] | IC50 (second compound 1 µM) [nM] | IC50 (second compound 3.16 µM) [nM] | IC50 (second compound 10 µM) [nM] | viability, T/C [1] [%] | viability, T/C [2] [%] | viability, T/C [3] [%] | viability, T/C [4] [%] | viability, T/C [5] [%] | viability, T/C [6] [%] | viability, T/C [7] [%] | viability, T/C [8] [%] | viability, T/C [9] [%] | viability, T/C [10] [%] | viability, T/C [11] [%] | viability, T/C [12] [%] | viability, T/C [13] [%] | viability, T/C [14] [%] | viability, T/C [15] [%] | further results |
| --- | --- | --- | --- | --- | --- | --- | --- | --- | --- | --- | --- | --- | --- | --- | --- | --- | --- | --- | --- | --- | --- |
| NS(=O)(=O)OCC1CC(n2ccc3c(NC4CCc5ccccc54)ncnc32)CC1O (stereo not given) + NC1CCC(NC2CC2c2ccccc2)CC1 | > 3000 | > 3000 | > 3000 | > 3000 | > 3000 | 97.5 | 80.8 | 106 | 107 | 54.7 | 61.1 | 97.8 | 81.6 | 105 | 114 | 55.6 | 50.7 | 94.4 | 92.8 | 91.2 | viability, T/C [16]: 116%; viability, T/C [17]: 60.5%; viability, T/C [18]: 56.2%; viability, T/C [19]: 105%; viability, T/C [20]: 98.7%; viability, T/C [21]: 100%; viability, T/C [22]: 105%; viability, T/C [23]: 58.6%; viability, T/C [24]: 59.2%; viability, T/C [25]: 116%; viability, T/C [26]: 101%; viability, T/C [27]: 105%; viability, T/C [28]: 118%; viability, T/C [29]: 63.7%; viability, T/C [30]: 54.2% |
| O=C(C=Cc1cccc(S(=O)(=O)Nc2ccccc2)c1)NO + NC1CCC(NC2CC2c2ccccc2)CC1 | 435 | 538 | 513 | 501 | 449 | 81.9 | 97.9 | 108 | 56.1 | 28.6 | 3.54 | 89.3 | 82.6 | 91.4 | 70.3 | 29.3 | 3.12 | 96.4 | 100 | 88.3 | viability, T/C [16]: 71.6%; viability, T/C [17]: 26.2%; viability, T/C [18]: 2.35%; viability, T/C [19]: 98.4%; viability, T/C [20]: 83.1%; viability, T/C [21]: 92.4%; viability, T/C [22]: 61.9%; viability, T/C [23]: 32.3%; viability, T/C [24]: 2.77%; viability, T/C [25]: 95.4%; viability, T/C [26]: 96%; viability, T/C [27]: 101%; viability, T/C [28]: 60.3%; viability, T/C [29]: 25.8%; viability, T/C [30]: 3.12% |
